Results: patent US8609654B1, “Compounds for enzyme inhibition” (Onyx Therapeutics, Inc., priority 2006, dated 2013)

Assays:
[1] = system: chymotryptic-like activity of isolated 20S constitutive proteasome vs immunoproteasome; assay: Enzyme kinetic assay with isolated 20S proteasome preps, EC50 ratio of CT-L activity (20S ratio); format: biochemical; conditions: constitutive proteasome to immunoproteasome, >1 = prefers immunoproteasome
Text: Enzyme kinetic assays such as those disclosed in U.S. application Ser. No. 09/569,748, Example 2 and Stein et al., Biochem. (1996), 35, 3899-3908 use isolated 20S proteasome preps with greater than 90% constitutive proteasome subunits or immunoproteasome subunits. The inhibitory preference of the molecule is then based on the EC50 ratio of the chymotryptic-like activity of the constitutive proteasome to that of the immunoproteasome (20S ratio).

[2] = target: T1, 26S proteasome CT-L activity in lysate of HT29 (constitutive) vs Sultan/Thp1 (immunoproteasome) cells (Homo sapiens, UniProt P28062+P28074); assay: CT-L EC50 with 26S proteasome in cell lysate (Lysate ratio); format: biochemical; conditions: HT29 lysate to Sultan/Thp1 lysate, >1 = prefers immunoproteasome
T1 construct: using 26S proteasome in the context of a cell lysate; endogenous in cells; host or cells: HT29 lysate (constitutive); Sultan or THP1 lysate (immunoproteasome)
T1 sequence (P28074 60-263): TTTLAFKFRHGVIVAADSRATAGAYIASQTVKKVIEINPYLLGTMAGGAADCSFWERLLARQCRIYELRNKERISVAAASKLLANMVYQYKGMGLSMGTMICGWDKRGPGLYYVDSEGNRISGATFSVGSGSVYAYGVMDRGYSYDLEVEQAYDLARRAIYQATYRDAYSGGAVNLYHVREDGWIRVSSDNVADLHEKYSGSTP
T1 sequence (P28062 73-276): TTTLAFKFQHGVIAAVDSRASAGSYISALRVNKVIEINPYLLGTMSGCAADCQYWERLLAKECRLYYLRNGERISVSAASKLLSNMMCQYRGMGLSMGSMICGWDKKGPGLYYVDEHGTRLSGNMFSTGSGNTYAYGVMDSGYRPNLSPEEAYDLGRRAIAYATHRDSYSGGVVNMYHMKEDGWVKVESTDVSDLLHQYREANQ
Method: Alternatively, the CT-L EC50 of a compound can be determined using 26S proteasome in the context of a cell lysate. Compound is added to lysate generated from cells that either predominantly express constitutive proteasome (e.g., HT29) or immunoproteasome (e.g., THP1). Again, the inhibitory preference is then based on the EC50 ratio (Lysate ratio).

[3] = target: T2, 20S proteasome subunit β5 vs immunoproteasome subunit LMP7 in RPMI-8226 cells (Homo sapiens, UniProt P28062+P28074); assay: ELISA-based active site assay in RPMI-8226 cells (ELISA ratio); format: cell-based; conditions: EC50 ratio with β5 antibody to LMP7 antibody, RPMI-8226 cells; >1 = prefers immunoproteasome
T2 construct: Cells expressing approximately equivalent amounts of immuno- and constitutive proteasome (e.g., RPMI-8226) are treated with test compound; endogenous in cells; host or cells: RPMI-8226 multiple myeloma cells
T2 sequence (P28074 60-263): T1 sequence (P28074 60-263)
T2 sequence (P28062 73-276): T1 sequence (P28062 73-276)
Method: Lastly, a more cell-based approach can be utilized. Cells expressing approximately equivalent amounts of immuno- and constitutive proteasome (e.g., RPMI-8226) are treated with test compound, followed by the method for determining the activity of a proteasome inhibitor as described in application Ser. No. 11/254,541. The ratio of the EC50 generated in the ELISA-based assay using β5 antibody and LMP7 antibodies (ELISA ratio) provides the basis for determining the inhibitory preference of the test compound. […] In all three assays, a ratio of less than one denotes the molecule inhibits the CT-L activity of the constitutive proteasome better than that of the immunoproteasome. Ratios greater than one signifies the molecule inhibits chymotrypsin-like activity of the immunoproteasome better than that of the constitutive proteasome.
A suitable ELISA assay may be found in U.S. patent application Ser. No. 11/254,541, incorporated herein in its entirety. Briefly, RPMI-8226 cells were treated with 0.1 nM to 1 μM of proteasome Inhibitor B. The samples were then washed with phosphate-buffered saline (PBS) and lysed in hypotonic buffer (20 mM Tris pH 8, 5 mM EDTA) (Tris-HCl and EDTA are available from Teknova, Inc., Hollister, Calif.). Cellular debris was removed by centrifugation at 14,000 rpm in a microfuge (4° C.) for 2 min. The supernatant was transferred to a fresh tube, snap frozen in liquid nitrogen and stored at −80° C. After thawing on ice, the samples (30 μl for assays run in triplicate) were treated with 500 nM of Inhibitor A for 1 hr at room temperature. Following treatment with Inhibitor A, the lysate was denatured by addition of seven volumes of 1% SDS (210 μl) (available from Bio-Rad, Hercules, Calif.) and heating at 99° C. with vigorous shaking for 5 min. The sample was allowed to cool and two volumes (60 μl) of 10% Triton X-100 (available from Bio-Rad, Hercules, Calif.) was added.
Streptavidin sepharose beads (6.5 μl/well) (available from Amersham Biosciences, Piscataway, N.J.), were washed three times with 1 ml PBS (available from Mediatech, Inc., Herndon, Va.) in a microcentrifuge tube. The beads were resuspended in ELISA wash/block buffer (PBS+0.1% Tween 20+1% bovine serum albumin; 20 μl/well) and transferred to the wells of a 96 well filter plate (BSA is available from Sigma, St. Louis, Mo.; Tween is available from Calbiochem, San Diego, Calif.). Denatured whole blood or PBMC lysates that were treated with Inhibitor 3 were added to the filter plate wells containing the streptavidin sepharose beads (each sample assayed in triplicate) and incubated for 1 hr at room temperature with shaking (MultiScreen-DV Opaque Plates with low protein binding durapore membrane; available from Millipore, Billerica, Mass.). The unbound material was removed by gentle filtration and the beads were washed six times with ELISA wash/block buffer (200 μl each).
Primary antibody to human 20S proteasome subunit (35 (rabbit polyclonal antibody; available from Biomol, Plymouth Meeting, Pa.) or human 20S immunoproteasome subunit LMP7 (rabbit polyclonal antibody; available from Affinity BioReagents, Golden, Colo.) was diluted 1:1000 in ELISA wash/block buffer, added to the beads (100 μl/well), and incubated for 1 hr at room temperature on an orbital shaker. The beads were washed six times with ELISA wash/block buffer with gentle filtration. Secondary antibody treatment (1:5000) and washing are as described for primary antibody (goat anti-rabbit antibody-HRP conjugate; available from Biosource, Camarillo, Calif.). The beads were then resuspended in 100 μl chemiluminescent detection reagent (Super Signal Pico Chemiluminescent Substrate™; available from Pierce, Rockford, Ill.) and luminescence was read on a Tecan plate reader. […]

Structure (SMILES): CC(NC(=O)OCc1ccccc1)C(=O)N[C@@H](Cc1ccccc1)C(=O)N[C@H](C(=O)C1(C)CO1)c1ccccc1 (stereo partly drawn)
- 20 S ratio (const:immuno) [1]: >1.0
- Lysate ratio (HT29:Sultan/Thp1) [2]: >5.0
- Elisa ratio (beta5:LMP7) [3]: >1.0

Structure (SMILES): COc1ccc(C[C@H](NC(=O)C(C)NC(=O)OCc2ccccc2)C(=O)N[C@@H](Cc2ccccc2)C(=O)C2(C)CO2)cc1 (stereo partly drawn) [drawing 86]
- 20 S ratio (const:immuno) [1]: >2.0
- Lysate ratio (HT29:Sultan/Thp1) [2]: >2.0
- Elisa ratio (beta5:LMP7) [3]: >5.0

Structure (SMILES): C[C@H](NC(=O)OCc1ccccc1)C(=O)N[C@@H](Cc1ccc(C#N)cc1)C(=O)N[C@@H](Cc1ccccc1)C(=O)C1(C)CO1 (stereo partly drawn)
- 20 S ratio (const:immuno) [1]: >1.0
- Lysate ratio (HT29:Sultan/Thp1) [2]: >2.0
- Elisa ratio (beta5:LMP7) [3]: >5.0

Structure (SMILES): CC(C)CC(NC(=O)OCc1ccccc1)C(=O)N[C@@H](CC(C)C)C(=O)N[C@@H](CC(C)C)C(=O)C1(C)CO1 (stereo partly drawn)
- 20 S ratio (const:immuno) [1]: <0.5
- Lysate ratio (HT29:Sultan/Thp1) [2]: <0.5
- Elisa ratio (beta5:LMP7) [3]: <0.5

Structure (SMILES): CC[C@@H](NC(=O)OCc1ccccc1)C(=O)N[C@@H](Cc1c[nH]c2ccccc12)C(=O)N[C@@H](Cc1ccccc1)C(=O)C1(C)CO1 (stereo partly drawn) [drawing 84]
- 20 S ratio (const:immuno) [1]: >5.0
- Lysate ratio (HT29:Sultan/Thp1) [2]: >3.0
- Elisa ratio (beta5:LMP7) [3]: >5.0

Structure (SMILES): CC[C@H](C)[C@@H](NC(=O)OCc1ccccc1)C(=O)N[C@@H](Cc1ccccc1)C(=O)N[C@@H](Cc1ccccc1)C(=O)C1(C)CO1 (stereo partly drawn)
- 20 S ratio (const:immuno) [1]: >5.0
- Lysate ratio (HT29:Sultan/Thp1) [2]: >3.0
- Elisa ratio (beta5:LMP7) [3]: >2.0

Structure (SMILES): CC(NC(=O)OCc1ccccc1)C(=O)N[C@@H](Cc1cccs1)C(=O)N[C@@H](Cc1ccccc1)C(=O)C1(C)CO1 (stereo partly drawn)
- 20 S ratio (const:immuno) [1]: >2.0
- Lysate ratio (HT29:Sultan/Thp1) [2]: >2.0
- Elisa ratio (beta5:LMP7) [3]: >3.0

Structure (SMILES): CC[C@@H](NC(=O)OCc1ccccc1)C(=O)N[C@@H](Cc1ccccc1)C(=O)N[C@@H](Cc1ccccc1)C(=O)C1(C)CO1 (stereo partly drawn)
- 20 S ratio (const:immuno) [1]: >5.0
- Lysate ratio (HT29:Sultan/Thp1) [2]: >5.0
- Elisa ratio (beta5:LMP7) [3]: >3.0

Structure (SMILES): CC[C@H](C)C(NC(=O)[C@H](Cc1c[nH]c2ccccc12)NC(=O)[C@H](C)NC(=O)OCc1ccccc1)C(=O)C1(C)CO1 (stereo partly drawn)
- 20 S ratio (const:immuno) [1]: <0.5
- Lysate ratio (HT29:Sultan/Thp1) [2]: <0.5
- Elisa ratio (beta5:LMP7) [3]: <1.0

Structure (SMILES): CC[C@H](C)C(NC(=O)OCc1ccccc1)C(=O)N[C@@H](Cc1c[nH]c2ccccc12)C(=O)N[C@@H](Cc1ccccc1)C(=O)C1(C)CO1 (stereo partly drawn)
- 20 S ratio (const:immuno) [1]: >5.0
- Lysate ratio (HT29:Sultan/Thp1) [2]: >3.0
- Elisa ratio (beta5:LMP7) [3]: >5.0

Structure (SMILES): COc1ccc(C[C@H](NC(=O)C(C)NC(=O)OCc2ccccc2)C(=O)N[C@@H](Cc2ccccc2)C(=O)C2(C)CO2)cc1 (stereo partly drawn) [drawing 66]
- 20 S ratio (const:immuno) [1]: >5.0
- Lysate ratio (HT29:Sultan/Thp1) [2]: >3.0
- Elisa ratio (beta5:LMP7) [3]: >5.0

Structure (SMILES): CC(C)C[C@@H](NC(=O)OCc1ccccc1)C(=O)N[C@@H](Cc1c[nH]c2ccccc12)C(=O)N[C@@H](Cc1ccccc1)C(=O)C1(C)CO1 (stereo partly drawn)
- 20 S ratio (const:immuno) [1]: >5.0
- Lysate ratio (HT29:Sultan/Thp1) [2]: >5.0
- Elisa ratio (beta5:LMP7) [3]: >5.0

Structure (SMILES): C[C@H](NC(=O)OCc1ccccc1)C(=O)N[C@@H](Cc1c[nH]c2ccccc12)C(=O)N[C@@H](Cc1ccccc1)C(=O)C1(C)CO1 (stereo partly drawn)
- 20 S ratio (const:immuno) [1]: >1.0
- Lysate ratio (HT29:Sultan/Thp1) [2]: >2.0
- Elisa ratio (beta5:LMP7) [3]: >5.0

Structure (SMILES): CC(NC(=O)OCc1ccccc1)C(=O)N[C@@H](Cc1ccccc1)C(=O)N[C@@H](CCc1ccccc1)C(=O)C1(C)CO1 (stereo partly drawn)
- 20 S ratio (const:immuno) [1]: >2.0
- Lysate ratio (HT29:Sultan/Thp1) [2]: >3.0
- Elisa ratio (beta5:LMP7) [3]: >3.0

Structure (SMILES): CC(C)C(NC(=O)OCc1ccccc1)C(=O)N[C@@H](Cc1ccccc1)C(=O)N[C@@H](Cc1ccccc1)C(=O)C1(C)CO1 (stereo partly drawn)
- 20 S ratio (const:immuno) [1]: >5.0
- Lysate ratio (HT29:Sultan/Thp1) [2]: >2.0
- Elisa ratio (beta5:LMP7) [3]: >2.0

Structure (SMILES): CC1(C(=O)[C@H](Cc2ccccc2)NC(=O)[C@H](Cc2ccccc2)NC(=O)C(CC(=O)O)NC(=O)OCc2ccccc2)CO1 (stereo partly drawn)
- 20 S ratio (const:immuno) [1]: >3.0
- Lysate ratio (HT29:Sultan/Thp1) [2]: >3.0
- Elisa ratio (beta5:LMP7) [3]: >2.0

Structure (SMILES): CC(NC(=O)OCc1ccccc1)C(=O)N[C@@H](Cc1c[nH]c2ccccc12)C(=O)N[C@@H](Cc1ccc(O)cc1)C(=O)C1(C)CO1 (stereo partly drawn)
- 20 S ratio (const:immuno) [1]: >3.0
- Lysate ratio (HT29:Sultan/Thp1) [2]: >3.0
- Elisa ratio (beta5:LMP7) [3]: >5.0

Structure (SMILES): C[C@H](NC(=O)OCc1ccccc1)C(=O)N[C@@H](Cc1cn(C)c2ccccc12)C(=O)N[C@@H](Cc1ccccc1)C(=O)C1(C)CO1 (stereo partly drawn)
- 20 S ratio (const:immuno) [1]: >1.0
- Lysate ratio (HT29:Sultan/Thp1) [2]: >1.0
- Elisa ratio (beta5:LMP7) [3]: >3.0

Structure (SMILES): C[C@H](NC(=O)OCc1ccccc1)C(=O)N[C@@H](Cc1ccc(C(F)(F)F)cc1)C(=O)N[C@@H](Cc1ccccc1)C(=O)C1(C)CO1 (stereo partly drawn)
- 20 S ratio (const:immuno) [1]: >1.0
- Lysate ratio (HT29:Sultan/Thp1) [2]: >3.0
- Elisa ratio (beta5:LMP7) [3]: >2.0

Structure (SMILES): C[C@H](NC(=O)OCc1ccccc1)C(=O)N[C@@H](Cc1c[nH]c2ccccc12)C(=O)N[C@H](C(=O)C1(C)CO1)c1ccccc1 (stereo partly drawn)
- 20 S ratio (const:immuno) [1]: >2.0
- Lysate ratio (HT29:Sultan/Thp1) [2]: >5.0
- Elisa ratio (beta5:LMP7) [3]: >3.0

Structure (SMILES): CC(C)C[C@H](NC(=O)[C@H](Cc1ccccc1)NC(=O)C(C)NC(=O)OCc1ccccc1)C(=O)C1(C)CO1 (stereo partly drawn)
- 20 S ratio (const:immuno) [1]: <0.5
- Lysate ratio (HT29:Sultan/Thp1) [2]: <0.5
- Elisa ratio (beta5:LMP7) [3]: <1.0
